Where two headings read alike, the source gives them in different places.
Tests used:
[1] = molecular target: T1, human galectin-1 (Gal-1, full length) (Homo sapiens, UniProt P09382); experiment: Competitive fluorescence polarization assay, Gal-1; format: binding
T1 construct: Gal-1 is a prototype galectin consisting of a single CRD and was used in full length; 6xHis tag with TEV protease site (N, cleaved yes); made in house; host or cells: BL21 Escherichia coli (pET-15b)
Description: (§1) Our investigation of the structure–activity relationship of N-aryl-N-lactosylamides started with an initial screening of substituted acetanilides (Table ). These compounds can be readily synthesized from a wide range of commercially available substituted anilines. Affinity was evaluated using a fluorescence polarization assay, which enables reliable determination of dissociation constants (K d) between small molecules and galectins. All inhibitors in this series were tested against the two most common human galectins: Gal-1 and Gal-3. Gal-1 is a prototype galectin consisting of a single CRD and was used in full length. In the case of Gal-3, which consists of the C-terminal CRD and N-terminal unfolded region, only the C-terminal domain was used (Gal-3C). Affinities were compared to methyl β-lactoside (β-LacOMe) as a baseline.
(§2) Fluorescence polarization experiments for determining inhibitor affinities were performed using the same instrumentation and settings as described for the direct binding experiments. […] The galectin–probe mixture was subsequently added using a Certus Flex liquid handler (Fritz Gyger AG, Switzerland) to reach a final volume of 5 μL. Anisotropy was measured after 30–60 min incubation at 25 °C. Inhibitor dissociation constants (K d) were calculated using Wang’s exact cubic model for competitive binding implemented in the BindCurve package. Protein and probe concentrations used in these competitive experiments are provided in the Supporting Information.
(§3) Competitive binding was modeled by Wang’s exact cubic model,3 which is written as […]
(§4) r = rmin + (rmax − rmin) 3 (6) […]
(§5) where r, rmin and rmax have the same meaning as in Equation 1. The coefficients a, b, and c are […]
(§6) a = Kd∗ + Kd + [L∗]T + [L]T − [R]T (7) b = Kd∗([L]T − [R]T) + Kd([L∗]T − [R]T) + Kd∗ Kd (8) […]
(§7) where Kd∗ is the dissociation constant of the probe, Kd is the dissociation constant of the […]
(§8) the unlabeled ligand, and [R]T is the total concentration of the receptor. The angle θ is defined […]
(§9) In the competitive binding experiments, the values of [L∗]T, [R]T and Kd∗ are known and [L]T is titrated. The values of minimal and maximal anisotropy rmin and rmax were fixed during fitting at the values of the minimal and maximal asymptotes obtained from the direct binding experiments. The value of Kd was calculated as the only unfixed parameter in the model.
(§10) Experimental constants used for the competitive fluorescence polarization experiments are […]
(§11) Table S2. Experimental constants used for competitive fluorescence polarization experiments. […]

[2] = molecular target: T2, human galectin-3C (Gal-3C, C-terminal CRD of galectin-3) (Homo sapiens, UniProt P17931); experiment: Competitive fluorescence polarization assay, Gal-3C; format: binding
T2 construct: only the C-terminal domain was used (Gal-3C); 6xHis tag with TEV protease site (N, cleaved yes); made in house; host or cells: BL21 Escherichia coli (pET-15b)
T2 sequence (P17931 118-248 limits assumed): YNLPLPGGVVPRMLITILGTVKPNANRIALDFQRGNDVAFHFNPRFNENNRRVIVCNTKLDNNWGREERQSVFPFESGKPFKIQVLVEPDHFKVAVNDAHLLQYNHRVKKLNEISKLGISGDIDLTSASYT
Description: as §1, §2, §3, §4, §5, §6, §7, §8, §9, §10, §11

[3] = CSV supplement, unrounded mean, read-out: Gal1_IC50_mean_uM
[4] = CSV supplement, unrounded mean, read-out: Gal1_Kd_mean_uM
[5] = competitive fluorescence polarization, mean ± SD, read-out: Kd Gal-1
[6] = four-parameter logistic model, mean ± SD, read-out: IC50 Gal-1
[7] = CSV supplement, unrounded mean, read-out: Gal3C_IC50_mean_uM
[8] = CSV supplement, unrounded mean, read-out: Gal3C_Kd_mean_uM
[9] = competitive fluorescence polarization, mean ± SD, read-out: Kd Gal-3C
[10] = four-parameter logistic model, mean ± SD, read-out: IC50 Gal-3C

T1 sequence (P09382 2-135): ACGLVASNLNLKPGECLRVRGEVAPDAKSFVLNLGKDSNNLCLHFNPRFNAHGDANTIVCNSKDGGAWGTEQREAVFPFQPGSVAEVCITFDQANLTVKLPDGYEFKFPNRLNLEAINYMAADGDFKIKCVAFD

Row | IC50 [1, 3] [µM] | Kd [1, 4] [µM] | Kd [1, 5] [µM] | IC50 [1, 6] [µM] | IC50 [2, 7] [µM] | Kd [2, 8] [µM] | Kd [2, 9] [µM] | IC50 [2, 10] [µM] | SMILES
1 | 565 | 314 | 310 ± 90 | 570 ± 10 | 328 | 111 | 110 ± 8 | 330 ± 5 | CC(=O)N(c1cc(F)c(F)c(F)c1)[C@@H]1O[C@H](CO)[C@@H](O[C@@H]2O[C@H](CO)[C@H](O)[C@H](O)[C@H]2O)[C@H](O)[C@H]1O [Compound 3i, N-[4-O-(β-D-Galactopyranosyl)-β-D-glucopyranosyl]-N-(3,4,5-trifluorophenyl)acetamide]
2 | 1030 | 637 | 640 ± 90 | 1000 ± 100 | 42.5 | 15.9 | 16 ± 2 | 43 ± 4 | COC(=O)c1cc(N(C(C)=O)[C@@H]2O[C@H](CO)[C@@H](O[C@@H]3O[C@H](CO)[C@H](O)[C@H](O)[C@H]3O)[C@H](O)[C@H]2O)c2cc[nH]c2c1 [Compound 3ae, N-[4-O-(β-D-Galactopyranosyl)-β-D-glucopyranosyl]-N-[6-(methylcarboxy)-1H-indol-4-yl]acetamide]
3 | 931 | 507 | 510 ± 30 | 930 ± 8 | 282 | 93.2 | 93 ± 20 | 280 ± 20 | CC(=O)N(c1ccccc1F)[C@@H]1O[C@H](CO)[C@@H](O[C@@H]2O[C@H](CO)[C@H](O)[C@H](O)[C@H]2O)[C@H](O)[C@H]1O [Compound 3g, N-[4-O-(β-D-Galactopyranosyl)-β-D-glucopyranosyl]-N-(2-fluorophenyl)acetamide]
4 | 957 | 651 | 650 ± 100 | 960 ± 40 | 130 | 50 | 50 ± 9 | 130 ± 3 | CC(=O)N(c1cc(Cl)cc(C(=O)O)c1)[C@@H]1O[C@H](CO)[C@@H](O[C@@H]2O[C@H](CO)[C@H](O)[C@H](O)[C@H]2O)[C@H](O)[C@H]1O [Compound 3ab, N-[4-O-(β-D-Galactopyranosyl)-β-D-glucopyranosyl]-N-(3-carboxy-5-chlorophenyl)acetamide]
5 | 1310 | 841 | 840 ± 80 | 1300 ± 30 | 120 | 51.3 | 51 ± 10 | 120 ± 9 | O=C(O)c1cccc(N(C(=O)c2ccccc2)[C@@H]2O[C@H](CO)[C@@H](O[C@@H]3O[C@H](CO)[C@H](O)[C@H](O)[C@H]3O)[C@H](O)[C@H]2O)c1 [Compound 3t, N-[4-O-(β-D-Galactopyranosyl)-β-D-glucopyranosyl]-N-(3-carboxyphenyl)benzamide]
6 | 718 | 396 | 400 ± 20 | 720 ± 40 | 355 | 113 | 110 ± 20 | 360 ± 20 | CC(=O)N(c1ccc(I)cc1)[C@@H]1O[C@H](CO)[C@@H](O[C@@H]2O[C@H](CO)[C@H](O)[C@H](O)[C@H]2O)[C@H](O)[C@H]1O [Compound 3l, N-[4-O-(β-D-Galactopyranosyl)-β-D-glucopyranosyl]-N-(4-iodophenyl)acetamide]
7 | 899 | 571 | 570 ± 60 | 900 ± 100 | 191 | 68.7 | 69 ± 20 | 190 ± 9 | CC(=O)N(c1cccc(-c2cn(C)nn2)c1)[C@@H]1O[C@H](CO)[C@@H](O[C@@H]2O[C@H](CO)[C@H](O)[C@H](O)[C@H]2O)[C@H](O)[C@H]1O [Compound 3aa, N-[4-O-(β-D-Galactopyranosyl)-β-D-glucopyranosyl]-N-[3-(1-methyl-1H-1,2,3-triazol-4-yl)phenyl]acetamide]
8 | 1570 | 1010 | 1000 ± 70 | 1600 ± 300 | 500 | 182 | 180 ± 50 | 500 ± 30 | C#Cc1cccc(N(C(C)=O)[C@@H]2O[C@H](CO)[C@@H](O[C@@H]3O[C@H](CO)[C@H](O)[C@H](O)[C@H]3O)[C@H](O)[C@H]2O)c1 [Compound 3c, N-[4-O-(β-D-Galactopyranosyl)-β-D-glucopyranosyl]-N-(3-ethynylphenyl)acetamide]
9 | 655 | 432 | 430 ± 30 | 660 ± 100 | 241 | 94.6 | 95 ± 40 | 240 ± 30 | COC(=O)c1cccc(N(C(C)=O)[C@@H]2O[C@H](CO)[C@@H](O[C@@H]3O[C@H](CO)[C@H](O)[C@H](O)[C@H]3O)[C@H](O)[C@H]2O)c1 [Compound 3v, N-[4-O-(β-D-Galactopyranosyl)-β-D-glucopyranosyl]-N-[3-(methylcarboxy)phenyl]acetamide]
10 | 654 | 363 | 360 ± 30 | 650 ± 30 | 363 | 113 | 110 ± 10 | 360 ± 10 | CC(=O)N(c1ccc(Cl)cc1)[C@@H]1O[C@H](CO)[C@@H](O[C@@H]2O[C@H](CO)[C@H](O)[C@H](O)[C@H]2O)[C@H](O)[C@H]1O [Compound 3j, N-[4-O-(β-D-Galactopyranosyl)-β-D-glucopyranosyl]-N-(4-chlorophenyl)acetamide]
11 | 973 | 661 | 660 ± 70 | 970 ± 50 | 346 | 137 | 140 ± 50 | 350 ± 30 | COc1ccc(N(C(C)=O)[C@@H]2O[C@H](CO)[C@@H](O[C@@H]3O[C@H](CO)[C@H](O)[C@H](O)[C@H]3O)[C@H](O)[C@H]2O)cc1 [Compound 3m, N-[4-O-(β-D-Galactopyranosyl)-β-D-glucopyranosyl]-N-(4-methoxyphenyl)acetamide]
12 | 1040 | 560 | 560 ± 100 | 1000 ± 90 | 489 | 160 | 160 ± 30 | 490 ± 60 | CC(=O)N(c1cccc(C(F)(F)F)c1)[C@@H]1O[C@H](CO)[C@@H](O[C@@H]2O[C@H](CO)[C@H](O)[C@H](O)[C@H]2O)[C@H](O)[C@H]1O [Compound 3d, N-[4-O-(β-D-Galactopyranosyl)-β-D-glucopyranosyl]-N-(3-trifluoromethylphenyl)acetamide]
13 | 678 | 364 | 360 ± 40 | 680 ± 10 | 284 | 88.9 | 89 ± 20 | 280 ± 10 | COc1ccc(N(C(C)=O)[C@@H]2O[C@H](CO)[C@@H](O[C@@H]3O[C@H](CO)[C@H](O)[C@H](O)[C@H]3O)[C@H](O)[C@H]2O)cc1OC [Compound 3n, N-[4-O-(β-D-Galactopyranosyl)-β-D-glucopyranosyl]-N-(3,4-dimethoxyphenyl)acetamide]
14 | 597 | 399 | 400 ± 20 | 600 ± 20 | 284 | 127 | 130 ± 80 | 280 ± 100 | CC(=O)N(c1ccc(F)c(F)c1)[C@@H]1O[C@H](CO)[C@@H](O[C@@H]2O[C@H](CO)[C@H](O)[C@H](O)[C@H]2O)[C@H](O)[C@H]1O [Compound 3h, N-[4-O-(β-D-Galactopyranosyl)-β-D-glucopyranosyl]-N-(3,4-difluorophenyl)acetamide]
15 | 671 | 361 | 360 ± 20 | 670 ± 30 | 305 | 98.1 | 98 ± 3 | 300 ± 50 | CC(=O)N(c1cccc(F)c1)[C@@H]1O[C@H](CO)[C@@H](O[C@@H]2O[C@H](CO)[C@H](O)[C@H](O)[C@H]2O)[C@H](O)[C@H]1O [Compound 3f, N-[4-O-(β-D-Galactopyranosyl)-β-D-glucopyranosyl]-N-(3-fluorophenyl)acetamide]

Reference: paper PMC12670426 (Journal of Medicinal Chemistry, 2025)
